According to ChEMBL document CHEMBL4229333, “Effects of rigidity on the selectivity of protein kinase inhibitors” (Eur J Med Chem, 2018):

Key:
[1] = molecular target: Proto-oncogene tyrosine-protein kinase Src (Homo sapiens) (UniProt P12931); experiment: Inhibition of SRC (unknown origin) at 1 uM by mobility shift microfluidics platform based assay relative to control
[2] = molecular target: G protein-coupled receptor kinase 6 (Homo sapiens) (UniProt P43250); experiment: Inhibition of GRK6 (unknown origin) at 1 uM by mobility shift microfluidics platform based assay relative to control
[3] = molecular target: Mitogen-activated protein kinase 3 (Homo sapiens) (UniProt P27361); experiment: Inhibition of MAPK3 (unknown origin) at 1 uM by mobility shift microfluidics platform based assay relative to control
[4] = molecular target: Serine/threonine-protein kinase B-raf (Homo sapiens, UniProt P15056, V600E); experiment: Inhibition of BRAF V600E mutant (unknown origin) after 20 mins by immunoblotting assay
[5] = molecular target: Calcium/calmodulin-dependent protein kinase type 1D (Homo sapiens) (UniProt Q8IU85); experiment: Inhibition of CAMK1D (unknown origin) at 1 uM by mobility shift microfluidics platform based assay relative to control
[6] = molecular target: Vascular endothelial growth factor receptor 1 (Homo sapiens) (UniProt P17948); experiment: Inhibition of FLT1 (unknown origin) at 1 uM by mobility shift microfluidics platform based assay relative to control
[7] = molecular target: Dual specificity protein kinase TTK (Homo sapiens) (UniProt P33981); experiment: Inhibition of TTK (unknown origin) at 1 uM by mobility shift microfluidics platform based assay relative to control
[8] = molecular target: Tyrosine-protein kinase HCK (Homo sapiens) (UniProt P08631); experiment: Inhibition of HCK (unknown origin) at 1 uM by mobility shift microfluidics platform based assay relative to control
[9] = molecular target: Hepatocyte growth factor receptor (Homo sapiens) (UniProt P08581); experiment: Inhibition of MET (unknown origin) at 1 uM by mobility shift microfluidics platform based assay relative to control
[10] = molecular target: Serine/threonine-protein kinase 16 (Homo sapiens) (UniProt O75716); experiment: Inhibition of STK16 (unknown origin) at 1 uM by mobility shift microfluidics platform based assay relative to control
[11] = molecular target: Receptor tyrosine-protein kinase erbB-4 (Homo sapiens) (UniProt Q15303); experiment: Inhibition of ERB-B4 (unknown origin) at 1 uM by mobility shift microfluidics platform based assay relative to control
[12] = molecular target: Serine/threonine-protein kinase 25 (Homo sapiens) (UniProt O00506); experiment: Inhibition of STK25 (unknown origin) at 1 uM by mobility shift microfluidics platform based assay relative to control
[13] = molecular target: Serine/threonine-protein kinase PLK1 (Homo sapiens) (UniProt P53350); experiment: Inhibition of PLK1 (unknown origin) at 1 uM by mobility shift microfluidics platform based assay relative to control
[14] = molecular target: Tyrosine-protein kinase ITK/TSK (Homo sapiens) (UniProt Q08881); experiment: Inhibition of ITK (unknown origin) at 1 uM by mobility shift microfluidics platform based assay relative to control
[15] = molecular target: Interleukin-1 receptor-associated kinase 4 (Homo sapiens) (UniProt Q9NWZ3); experiment: Inhibition of IRAK4 (unknown origin) at 1 uM by mobility shift microfluidics platform based assay relative to control
[16] = molecular target: Casein kinase I isoform alpha (Homo sapiens) (UniProt P48729); experiment: Inhibition of CK1-alpha1 (unknown origin) at 1 uM by mobility shift microfluidics platform based assay relative to control
[17] = molecular target: Serine/threonine-protein kinase D3 (Homo sapiens) (UniProt O94806); experiment: Inhibition of PRKD3 (unknown origin) at 1 uM by mobility shift microfluidics platform based assay relative to control
[18] = molecular target: Muscle, skeletal receptor tyrosine-protein kinase (Homo sapiens) (UniProt O15146); experiment: Inhibition of MUSK (unknown origin) at 1 uM by mobility shift microfluidics platform based assay relative to control
[19] = molecular target: Ribosomal protein S6 kinase beta-1 (Homo sapiens) (UniProt P23443); experiment: Inhibition of P70S6K1 (unknown origin) at 1 uM by mobility shift microfluidics platform based assay relative to control
[20] = molecular target: SRSF protein kinase 3 (Homo sapiens) (UniProt Q9UPE1); experiment: Inhibition of MSSK1 (unknown origin) at 1 uM by mobility shift microfluidics platform based assay relative to control
[21] = molecular target: NUAK family SNF1-like kinase 1 (Homo sapiens) (UniProt O60285); experiment: Inhibition of ARK5 (unknown origin) at 1 uM by mobility shift microfluidics platform based assay relative to control
[22] = molecular target: Testis-specific serine/threonine-protein kinase 2 (Homo sapiens) (UniProt Q96PF2); experiment: Inhibition of TSSK2 (unknown origin) at 1 uM by mobility shift microfluidics platform based assay relative to control
[23] = molecular target: Tyrosine-protein kinase SYK (Homo sapiens) (UniProt P43405); experiment: Inhibition of SYK (unknown origin) at 1 uM by mobility shift microfluidics platform based assay relative to control
Homo sapiens = species on record: Homo sapiens; experiment: Inhibition of CDK/Cyclin E (unknown origin) at 1 uM by mobility shift microfluidics platform based assay relative to control
[24] = molecular target: Fibroblast growth factor receptor 1 (Homo sapiens) (UniProt P11362); experiment: Inhibition of FGFR1 (unknown origin) at 1 uM by mobility shift microfluidics platform based assay relative to control
[25] = molecular target: Tyrosine-protein kinase BTK (Homo sapiens) (UniProt Q06187); experiment: Inhibition of BTK (unknown origin) at 1 uM by mobility shift microfluidics platform based assay relative to control
[26] = molecular target: Protein kinase C gamma type (Homo sapiens) (UniProt P05129); experiment: Inhibition of PKC-gamma (unknown origin) at 1 uM by mobility shift microfluidics platform based assay relative to control
[27] = molecular target: Ephrin type-A receptor 3 (Homo sapiens) (UniProt P29320); experiment: Inhibition of EPH-A3 (unknown origin) at 1 uM by mobility shift microfluidics platform based assay relative to control
[28] = molecular target: Tyrosine-protein kinase CSK (Homo sapiens) (UniProt P41240); experiment: Inhibition of CSK (unknown origin) at 1 uM by mobility shift microfluidics platform based assay relative to control
[29] = molecular target: Serine/threonine-protein kinase 10 (Homo sapiens) (UniProt O94804); experiment: Inhibition of LOK (unknown origin) at 1 uM by mobility shift microfluidics platform based assay relative to control
[30] = molecular target: Ephrin type-A receptor 8 (Homo sapiens) (UniProt P29322); experiment: Inhibition of EPH-A8 (unknown origin) at 1 uM by mobility shift microfluidics platform based assay relative to control
[31] = molecular target: Serine/threonine-protein kinase BRSK1 (Homo sapiens) (UniProt Q8TDC3); experiment: Inhibition of BRSK1 (unknown origin) at 1 uM by mobility shift microfluidics platform based assay relative to control
[32] = molecular target: Cyclin-dependent kinase 2 (Homo sapiens) (UniProt P24941); experiment: Inhibition of CDK2 (unknown origin) at 1 uM by mobility shift microfluidics platform based assay relative to control
[33] = molecular target: Serine/threonine-protein kinase PLK3 (Homo sapiens) (UniProt Q9H4B4); experiment: Inhibition of PLK3 (unknown origin) at 1 uM by mobility shift microfluidics platform based assay relative to control
Chain of Serine/threonine-protein kinase PLK3 (Homo sapiens) (Q9H4B4 whole entry, looked up): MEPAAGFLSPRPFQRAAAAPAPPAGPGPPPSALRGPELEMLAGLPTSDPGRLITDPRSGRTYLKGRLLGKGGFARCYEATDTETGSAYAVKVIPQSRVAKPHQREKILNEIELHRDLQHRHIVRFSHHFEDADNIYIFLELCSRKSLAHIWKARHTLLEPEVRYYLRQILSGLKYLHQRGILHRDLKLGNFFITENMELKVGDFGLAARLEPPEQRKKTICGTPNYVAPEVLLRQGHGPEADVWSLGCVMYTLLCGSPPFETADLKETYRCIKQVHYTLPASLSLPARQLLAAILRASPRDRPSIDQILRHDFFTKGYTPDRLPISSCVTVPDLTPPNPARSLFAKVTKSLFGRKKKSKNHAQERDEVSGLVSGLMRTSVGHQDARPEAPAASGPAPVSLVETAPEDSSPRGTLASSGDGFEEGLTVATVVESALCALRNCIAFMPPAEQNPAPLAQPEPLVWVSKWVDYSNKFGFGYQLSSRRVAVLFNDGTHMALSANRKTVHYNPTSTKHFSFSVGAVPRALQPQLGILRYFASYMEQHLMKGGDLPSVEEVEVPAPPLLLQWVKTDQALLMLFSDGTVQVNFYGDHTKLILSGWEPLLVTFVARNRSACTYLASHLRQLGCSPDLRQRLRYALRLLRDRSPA

Chain of Serine/threonine-protein kinase PLK1 (Homo sapiens) (P53350 whole entry): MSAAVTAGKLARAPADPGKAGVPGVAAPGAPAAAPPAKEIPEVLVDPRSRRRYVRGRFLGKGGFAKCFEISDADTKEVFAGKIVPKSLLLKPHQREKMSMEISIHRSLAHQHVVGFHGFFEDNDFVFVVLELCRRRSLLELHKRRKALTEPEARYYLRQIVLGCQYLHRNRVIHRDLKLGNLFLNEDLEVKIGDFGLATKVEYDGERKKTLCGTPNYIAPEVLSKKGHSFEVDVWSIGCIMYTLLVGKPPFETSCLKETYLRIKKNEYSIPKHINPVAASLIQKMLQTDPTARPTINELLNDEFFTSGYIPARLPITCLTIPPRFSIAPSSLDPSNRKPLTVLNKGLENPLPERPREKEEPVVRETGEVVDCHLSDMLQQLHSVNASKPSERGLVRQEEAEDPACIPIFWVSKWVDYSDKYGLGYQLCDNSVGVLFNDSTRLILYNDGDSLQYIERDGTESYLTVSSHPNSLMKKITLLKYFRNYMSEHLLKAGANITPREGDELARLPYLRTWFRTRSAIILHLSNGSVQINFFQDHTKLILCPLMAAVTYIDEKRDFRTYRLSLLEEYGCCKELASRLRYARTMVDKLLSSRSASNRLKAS
Chain of Hepatocyte growth factor receptor (Homo sapiens) (P08581 whole entry): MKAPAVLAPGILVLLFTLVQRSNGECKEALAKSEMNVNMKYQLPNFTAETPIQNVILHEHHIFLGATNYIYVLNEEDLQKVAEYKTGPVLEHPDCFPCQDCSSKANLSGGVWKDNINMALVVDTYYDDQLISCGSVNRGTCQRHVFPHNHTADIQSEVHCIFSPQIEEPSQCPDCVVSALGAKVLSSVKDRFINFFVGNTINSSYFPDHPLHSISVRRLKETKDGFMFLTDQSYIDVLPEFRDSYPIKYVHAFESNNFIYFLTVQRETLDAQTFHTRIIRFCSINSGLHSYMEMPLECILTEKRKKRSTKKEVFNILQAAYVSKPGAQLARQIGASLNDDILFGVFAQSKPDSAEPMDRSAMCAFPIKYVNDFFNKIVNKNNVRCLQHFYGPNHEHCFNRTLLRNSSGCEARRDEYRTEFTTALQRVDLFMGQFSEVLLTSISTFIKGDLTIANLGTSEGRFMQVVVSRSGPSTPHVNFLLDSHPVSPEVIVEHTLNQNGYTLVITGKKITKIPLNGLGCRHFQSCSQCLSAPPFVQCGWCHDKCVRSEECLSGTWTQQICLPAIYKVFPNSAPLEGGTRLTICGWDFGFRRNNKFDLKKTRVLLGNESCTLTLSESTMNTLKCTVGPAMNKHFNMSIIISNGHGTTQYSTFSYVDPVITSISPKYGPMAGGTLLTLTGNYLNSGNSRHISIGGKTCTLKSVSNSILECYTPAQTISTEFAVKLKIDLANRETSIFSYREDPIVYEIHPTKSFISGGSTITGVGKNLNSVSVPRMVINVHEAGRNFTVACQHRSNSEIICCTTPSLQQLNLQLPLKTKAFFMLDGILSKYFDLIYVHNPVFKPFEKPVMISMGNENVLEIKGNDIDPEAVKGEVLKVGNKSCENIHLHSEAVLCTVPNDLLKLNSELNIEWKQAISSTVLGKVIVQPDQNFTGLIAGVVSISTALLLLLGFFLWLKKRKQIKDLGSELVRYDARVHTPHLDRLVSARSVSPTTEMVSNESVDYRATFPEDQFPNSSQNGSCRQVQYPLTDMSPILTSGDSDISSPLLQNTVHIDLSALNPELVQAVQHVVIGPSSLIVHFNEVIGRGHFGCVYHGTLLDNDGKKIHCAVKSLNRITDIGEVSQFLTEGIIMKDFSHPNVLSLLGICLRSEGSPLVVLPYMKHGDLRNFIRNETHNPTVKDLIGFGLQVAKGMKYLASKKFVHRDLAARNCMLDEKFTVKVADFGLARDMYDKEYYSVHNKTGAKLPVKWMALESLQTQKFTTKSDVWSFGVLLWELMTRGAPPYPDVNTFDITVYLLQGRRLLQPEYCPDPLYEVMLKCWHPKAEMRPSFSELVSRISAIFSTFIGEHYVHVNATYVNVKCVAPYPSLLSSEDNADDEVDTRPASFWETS
Chain of Tyrosine-protein kinase HCK (Homo sapiens) (P08631 2-526 limits assumed): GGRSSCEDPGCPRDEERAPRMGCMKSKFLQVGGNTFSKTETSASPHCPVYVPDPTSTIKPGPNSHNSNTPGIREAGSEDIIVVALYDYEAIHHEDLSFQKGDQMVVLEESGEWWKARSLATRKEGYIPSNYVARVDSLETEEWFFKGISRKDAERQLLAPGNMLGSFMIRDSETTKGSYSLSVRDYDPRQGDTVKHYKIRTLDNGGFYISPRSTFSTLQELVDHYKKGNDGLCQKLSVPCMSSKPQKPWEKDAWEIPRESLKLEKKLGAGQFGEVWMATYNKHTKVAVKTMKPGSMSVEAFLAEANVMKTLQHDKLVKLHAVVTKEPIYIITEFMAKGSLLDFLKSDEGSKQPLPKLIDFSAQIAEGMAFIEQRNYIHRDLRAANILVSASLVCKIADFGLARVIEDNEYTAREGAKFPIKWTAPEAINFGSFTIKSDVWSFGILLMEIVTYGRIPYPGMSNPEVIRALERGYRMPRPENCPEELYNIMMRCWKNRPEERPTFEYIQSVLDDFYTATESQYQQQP
Chain of Ribosomal protein S6 kinase beta-1 (Homo sapiens) (P23443 whole entry, looked up): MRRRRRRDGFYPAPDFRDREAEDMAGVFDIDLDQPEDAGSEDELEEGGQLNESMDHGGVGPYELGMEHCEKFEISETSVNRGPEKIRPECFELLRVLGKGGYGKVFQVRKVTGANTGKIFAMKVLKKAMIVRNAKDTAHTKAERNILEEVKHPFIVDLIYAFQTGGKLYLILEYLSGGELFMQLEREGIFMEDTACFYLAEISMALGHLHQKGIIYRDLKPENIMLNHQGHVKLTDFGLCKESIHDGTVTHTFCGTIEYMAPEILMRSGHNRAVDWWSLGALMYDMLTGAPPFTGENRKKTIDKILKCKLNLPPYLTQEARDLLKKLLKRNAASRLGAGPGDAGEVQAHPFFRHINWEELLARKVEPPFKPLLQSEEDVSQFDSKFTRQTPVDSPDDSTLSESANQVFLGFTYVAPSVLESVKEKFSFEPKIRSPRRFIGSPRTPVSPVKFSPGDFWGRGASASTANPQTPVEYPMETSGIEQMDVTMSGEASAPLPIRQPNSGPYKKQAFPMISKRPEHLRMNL
Chain of Testis-specific serine/threonine-protein kinase 2 (Homo sapiens) (Q96PF2 whole entry): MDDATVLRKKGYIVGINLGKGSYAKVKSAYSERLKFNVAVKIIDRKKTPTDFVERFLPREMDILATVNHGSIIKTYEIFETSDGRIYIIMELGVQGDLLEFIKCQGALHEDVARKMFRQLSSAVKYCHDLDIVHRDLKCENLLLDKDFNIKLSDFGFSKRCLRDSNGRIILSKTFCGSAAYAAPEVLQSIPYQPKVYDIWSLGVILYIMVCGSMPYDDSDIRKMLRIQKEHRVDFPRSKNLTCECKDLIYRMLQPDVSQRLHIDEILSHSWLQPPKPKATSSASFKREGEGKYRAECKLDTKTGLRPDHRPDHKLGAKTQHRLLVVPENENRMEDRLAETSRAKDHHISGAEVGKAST
Chain of Tyrosine-protein kinase CSK (Homo sapiens) (P41240 2-450 limits assumed): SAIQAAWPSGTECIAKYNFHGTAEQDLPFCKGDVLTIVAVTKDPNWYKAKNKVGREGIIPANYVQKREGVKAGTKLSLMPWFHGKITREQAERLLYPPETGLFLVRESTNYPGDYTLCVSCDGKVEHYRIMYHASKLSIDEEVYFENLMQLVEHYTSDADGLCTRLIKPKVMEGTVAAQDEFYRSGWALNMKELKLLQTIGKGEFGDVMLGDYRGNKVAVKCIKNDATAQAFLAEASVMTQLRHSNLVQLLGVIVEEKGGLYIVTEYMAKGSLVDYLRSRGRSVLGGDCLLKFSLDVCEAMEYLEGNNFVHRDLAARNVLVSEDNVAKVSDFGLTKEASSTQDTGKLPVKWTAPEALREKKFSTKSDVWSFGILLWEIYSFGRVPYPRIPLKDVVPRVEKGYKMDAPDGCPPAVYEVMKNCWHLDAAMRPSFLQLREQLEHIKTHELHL
Chain of Calcium/calmodulin-dependent protein kinase type 1D (Homo sapiens) (Q8IU85 whole entry, looked up): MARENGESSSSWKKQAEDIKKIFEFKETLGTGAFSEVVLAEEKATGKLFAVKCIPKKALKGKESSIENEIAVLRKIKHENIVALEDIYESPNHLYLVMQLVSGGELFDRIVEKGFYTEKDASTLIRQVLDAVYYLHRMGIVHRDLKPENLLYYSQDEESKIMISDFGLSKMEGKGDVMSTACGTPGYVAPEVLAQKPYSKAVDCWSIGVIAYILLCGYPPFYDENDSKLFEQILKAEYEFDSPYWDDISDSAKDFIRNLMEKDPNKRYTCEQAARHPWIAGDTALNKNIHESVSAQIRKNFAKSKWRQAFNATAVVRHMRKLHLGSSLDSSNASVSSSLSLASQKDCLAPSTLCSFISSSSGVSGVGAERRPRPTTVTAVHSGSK

Compound | inhibition [1] [%] | inhibition [2] [%] | inhibition [3] [%] | IC50 [4] [µM] | inhibition [5] [%] | inhibition [6] [%] | inhibition [7] [%] | inhibition [8] [%] | inhibition [9] [%] | inhibition [10] [%] | inhibition [11] [%] | inhibition [12] [%] | inhibition [13] [%] | inhibition [14] [%] | inhibition [15] [%] | inhibition [16] [%] | inhibition [17] [%] | inhibition [18] [%] | inhibition [19] [%] | inhibition [20] [%] | further results
CC(C)n1nc(C#Cc2cccc(NC(=O)c3cccc(C(F)(F)F)c3)c2)c2c(N)ncnc21 | 100 | -9 | 1 | 0.004 | 7 | 99 | 33 | 107 | 8 | 8 | 88 | -5 | 1 | 23 | 2 | 10 | -1 | 8 | 5 | 9 | inhibition [21]: 14%; inhibition [22]: -10%; inhibition [23]: -4%; inhibition (Homo sapiens): 1 to 3%; inhibition [24]: 98%; inhibition [25]: 71%; inhibition [26]: -1%; inhibition [27]: 98%; inhibition [28]: 93%; inhibition [29]: 97%; inhibition [30]: 100%; inhibition [31]: -10%; inhibition [32]: 3%; inhibition [33]: 3%
CC(C)n1nc(C#Cc2cccc3cc(-c4cccc(C(F)(F)F)c4)ncc23)c2c(N)ncnc21 | 80 | 3 | 1 | 0.065 | 10 | 89 | -3 | 81 | -1 | 2 | 4 | 3 | 1 | 10 | 3 | 2 | 1 | 3 | 1 | 0 | inhibition [21]: 1%; inhibition [22]: 1%; inhibition [23]: 6%; inhibition (Homo sapiens): -1 to 3%; inhibition [24]: 91%; inhibition [25]: 5%; inhibition [26]: 2%; inhibition [27]: 76%; inhibition [28]: 31%; inhibition [29]: 59%; inhibition [30]: 97%; inhibition [31]: 0%; inhibition [32]: 1%; inhibition [33]: 0%
